Results reported in patent US20230086702A1, “SUBSTITUTED 2-AMINO-PYRAZOLYL-[1,2,4]TRIAZOLO[1,5A]PYRIDINE DERIVATIVES AND USE THEREOF” (The Johns Hopkins University, priority 2019, published 2023).

Legend:
DLK = target: T1, DLK (Homo sapiens, UniProt Q12852); assay: DLK biochemical assay (TR-FRET, MKK7 phosphorylation)
T1 construct: 10 nM DLK, catalytic domain, Carna Biosiences; purchased Carna Biosciences ('Carna Biosiences' [sic])
T1 sequence (Q12852 125-366 limits assumed): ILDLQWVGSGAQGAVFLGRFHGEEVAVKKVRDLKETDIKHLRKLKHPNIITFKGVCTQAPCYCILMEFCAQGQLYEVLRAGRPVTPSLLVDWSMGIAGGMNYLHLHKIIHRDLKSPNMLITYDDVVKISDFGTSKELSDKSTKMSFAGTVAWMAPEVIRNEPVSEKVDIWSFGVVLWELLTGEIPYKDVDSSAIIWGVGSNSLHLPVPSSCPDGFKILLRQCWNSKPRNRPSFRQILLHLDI
Protocol: (§1) DLK assay is a biochemical assay format designed to screen for inhibitors of DLK. Enzymatic activity of DLK is measured by monitoring phosphorylation of the physiological substrate MKK7 (MAP2K7, Dual specificity mitogen-activated protein kinase kinase 7). Phosphorylation is detected by a TR-FRET system whereby His-tagged MKK7 is labeled by a XL665-labeled anti-His antibody (FRET acceptor, emission 665 nm). DLK phosphorylates MKK7 at T275/S277, which is detected by an Eu-labeled anti-phospho-MKK7 (T275/S277) antibody (FRET donor, excitation 340 nm). Phosphorylation of MKK7 results in an increased TR-FRET signal (Ratio XL665-channel/Eu-channel) and inhibition of enzymatic activity of DLK decreases the TR-FRET signal.
Assay Protocol for 1536 MTP format: test compounds are predispensed (60 nl) in test plates; +3 μl DLK solution (10 nM DLK, catalytic domain, Carna Biosiences, 0.6 mM DTT in assay buffer); +2 μl substrate solution (15 nM MKK7, LDB; 60 μM ATP; 0.4 mM DTT in assay buffer); 90 min incubation at RT; +2 μl detection mix (5 nM XL665-labeled anti-His antibody, Cisbio; 0.1 nM Eu-labeled anti-phospho-MKK7 (T275/S277), Cisbio/Millipore in detection buffer); 16 h incubation at 37° C.; endpoint measurement BMG (HTRF).
(§2) Assay Protocol for 384 low volume MTP format: 1 μl of test compounds is pipetted into test plate; +5 μl DLK solution (10 nM DLK, catalytic domain, Carna Biosiences in assay buffer); +5 μl substrate solution (15 nM MKK7, LDB; 60 μM ATP, in assay buffer); 90 min incubation at RT; +9 μl detection mix (20 nM XL665-labeled anti-His antibody, Cisbio; 0.4 nM Eu-labeled anti-phospho-MKK7 (T275/S277), Cisbio/Millipore in detection buffer); 16 h incubation at 4° C.; endpoint measurement BMG (HTRF).
(§3) All indicated concentrations final concentrations.
(§4) Assay buffer (384 format): 50 mM Hepes pH 7.5, 10 mM MgCl2, 1 mM EGTA, 1 mM DTT, 0.01% Triton X-100, 0.01% BSA, 1:500 Smart Block.
(§5) Detection buffer: 25 mM Tris/HCl pH 7.5, 100 mM EDTA, 100 mM NaCl, 200 mM KF, 0.01% Tween 20, 1:500 Smart Block.

LZK = target: T2, LZK (Homo sapiens, UniProt O43283); assay: LZK biochemical assay (TR-FRET, MKK7 phosphorylation)
T2 construct: 10 nM LZK, catalytic domain, Carna Biosiences in assay buffer; purchased Carna Biosciences ('Carna Biosiences' [sic])
T2 sequence (O43283 168-409 limits assumed): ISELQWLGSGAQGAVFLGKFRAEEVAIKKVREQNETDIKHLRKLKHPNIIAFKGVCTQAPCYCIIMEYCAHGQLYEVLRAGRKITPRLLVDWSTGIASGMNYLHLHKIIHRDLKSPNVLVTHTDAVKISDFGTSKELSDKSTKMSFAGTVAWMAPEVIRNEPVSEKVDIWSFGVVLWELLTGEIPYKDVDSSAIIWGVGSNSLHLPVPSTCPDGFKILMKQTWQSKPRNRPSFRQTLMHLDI
Protocol: as §1, with “LZK” for “DLK”, “LZK.” for “DLK.”, “T275/S277” for “T275/S277,”
as §2, with “compound” for “compounds”, “LZK” for “DLK”, “LZK,” for “DLK,”, “15” for “60”, “+5” for “+9”, “32°” for “4°”
as §3, §4, §5

IC50 (DLK) [nM] | IC50 (LZK) [nM] | SMILES
7.5 | 11 | CC(C)C(c1ccc(C(F)(F)F)nc1)n1cc(-c2cc(-c3ccc(OC4CC4)nc3)n3nc(N)nc3c2)cn1 (racemic) [II-48, 5-[6-(Cyclopropyloxy)pyridin-3-yl]-7-(1-{2-methyl-1-[6-(trifluoromethyl)pyridin-3-yl]propyl}-1H-pyrazol-4-yl)[1,2,4]triazolo[1,5-a]pyridin-2-amine]
31 | 84 | CC(C)C(c1ccc(C(F)F)nc1)n1cc(-c2cc(-c3ccc(OC(F)F)nc3)n3nc(N)nc3c2)cn1 (racemic) [II-49, 5-[6-(Difluoromethoxy)pyridin-3-yl]-7-(1-{1-[6-(difluoromethyl)pyridin-3-yl]-2-methylpropyl}-1H-pyrazol-4-yl)[1,2,4]triazolo[1,5-a]pyridin-2-amine]
6 | 19 | CC(C)C(c1ccc(C(F)F)nc1)n1cc(-c2cc(-c3ccc(C4CC4)nc3)n3nc(N)nc3c2)cn1 (racemic) [II-52, 5-(6-Cyclopropylpyridin-3-yl)-7-(1-{1-[6-(difluoromethyl)pyridin-3-yl]-2-methylpropyl}-1H-pyrazol-4-yl)[1,2,4]triazolo[1,5-a]pyridin-2-amine]
21 | 24 | CCC(c1ccc(C(F)(F)F)nc1)n1cc(-c2cc(-c3ccc(C4CC4)nc3)n3nc(N)nc3c2)cn1 (racemic) [II-55, 5-(6-Cyclopropylpyridin-3-yl)-7-(1-{1-[6-(trifluoromethyl)pyridin-3-yl]propyl}-1H-pyrazol-4-yl)[1,2,4]triazolo[1,5-a]pyridin-2-amine]
21 | 22 | CC(C)C(c1ccc(C(F)(F)F)nc1)n1cc(-c2cc(-c3ccc(C4CC4)nc3)n3nc(N)nc3c2)cn1 (racemic) [II-58, 5-(6-Cyclopropylpyridin-3-yl)-7-(1-{2-methyl-1-[6-(trifluoromethyl)pyridin-3-yl]propyl}-1H-pyrazol-4-yl)[1,2,4]triazolo[1,5-a]pyridin-2-amine]
65 | 62 | CCC(c1ccc(C(F)F)nc1)n1cc(-c2cc(-c3ccc(C(F)(F)F)nc3)n3nc(N)nc3c2)cn1 (racemic) [II-61, 7-(1-{1-[6-(Difluoromethyl)pyridin-3-yl]propyl}-1H-pyrazol-4-yl)-5-[6-(trifluoromethyl)pyridin-3-yl][1,2,4]triazolo[1,5-a]pyridin-2-amine]
40 | 59 | CC(C)C(c1ccc(C(F)F)nc1)n1cc(-c2cc(-c3ccc(C(F)(F)F)nc3)n3nc(N)nc3c2)cn1 (racemic) [II-64, 7-(1-{1-[6-(Difluoromethyl)pyridin-3-yl]-2-methylpropyl}-1H-pyrazol-4-yl)-5-[6-(trifluoromethyl)pyridin-3-yl][1,2,4]triazolo[1,5-a]pyridin-2-amine]
12 | 15 | CCC(c1ccc(C(F)F)nc1)n1cc(-c2cc(-c3ccc(C4CC4)nc3)n3nc(N)nc3c2)cn1 (racemic) [II-67, 5-(6-Cyclopropylpyridin-3-yl)-7-(1-{1-[6-(difluoromethyl)pyridin-3-yl]propyl}-1H-pyrazol-4-yl)[1,2,4]triazolo[1,5-a]pyridin-2-amine]
26 | 15 | CC(C)C(c1ccc(C(F)(F)F)nc1)n1cc(-c2cc(-c3ccc(C(F)F)nc3)n3nc(N)nc3c2)cn1 (racemic) [II-70, 5-[6-(Difluoromethyl)pyridin-3-yl]-7-(1-{2-methyl-1-[6-(trifluoromethyl)pyridin-3-yl]propyl}-1H-pyrazol-4-yl)[1,2,4]triazolo[1,5-a]pyridin-2-amine]
44 | 44 | CC(C)C(c1ccc(C(F)(F)F)nc1)n1cc(-c2cc(-c3ccc(C4CC(F)(F)C4)nc3)n3nc(N)nc3c2)cn1 (racemic) [II-73, 5-[6-(3,3-Difluorocyclobutyl)pyridin-3-yl]-7-(1-{2-methyl-1-[6-(trifluoromethyl)pyridin-3-yl]propyl}-1H-pyrazol-4-yl)[1,2,4]triazolo[1,5-a]pyridin-2-amine]
21 | 16 | Nc1nc2cc(-c3cnn(C(c4ccc(C(F)F)nc4)C4CCOCC4)c3)cc(-c3ccc(C(F)(F)F)nc3)n2n1 (racemic) [II-76, 7-(1-{[6-(Difluoromethyl)pyridin-3-yl](tetrahydro-2H-pyran-4-yl)methyl}-1H-pyrazol-4-yl)-5-[6-(trifluoromethyl)pyridin-3-yl][1,2,4]triazolo[1,5-a]pyridin-2-amine]
46 | 27 | CC(C)C(c1ccc(C(F)(F)F)nc1)n1cc(-c2cc(-c3ccc(N4CCCC4)nc3)n3nc(N)nc3c2)cn1 (racemic) [II-79, 7-(1-{2-Methyl-1-[6-(trifluoromethyl)pyridin-3-yl]propyl}-1H-pyrazol-4-yl)-5-[6-(pyrrolidin-1-yl)pyridin-3-yl][1,2,4]triazolo[1,5-a]pyridin-2-amine]
21 | 17 | CC(C)C(c1ccc(C(F)(F)F)nc1)n1cc(-c2cc(-c3ccc(C4(O)CCC4)nc3)n3nc(N)nc3c2)cn1 (racemic) [II-80, 1-{5-[2-Amino-7-(1-{2-methyl-1-[6-(trifluoromethyl)pyridin-3-yl]propyl}-1H-pyrazol-4-yl)[1,2,4]triazolo[1,5-a]pyridin-5-yl]pyridin-2-yl}cyclobutan-1-ol]
230 | 320 | CC(C)C(c1ccc(C(F)(F)F)nc1)n1cc(-c2cc(-c3cnc(OCC(F)(F)F)nc3)n3nc(N)nc3c2)cn1 (racemic) [II-85, 7-(1-{2-Methyl-1-[6-(trifluoromethyl)pyridin-3-yl]propyl}-1H-pyrazol-4-yl)-5-[2-(2,2,2-trifluoroethoxy)pyrimidin-5-yl][1,2,4]triazolo[1,5-a]pyridin-2-amine]
12 | 39 | Nc1nc2c(-c3cnn(CC4CC4(F)F)c3)cc(-c3cnn(Cc4ccccc4)c3)cn2n1 (racemic) [II-89, 6-(1-Benzyl-1H-pyrazol-4-yl)-8-{1-[(2,2-difluorocyclopropyl)methyl]-1H-pyrazol-4-yl}[1,2,4]triazolo[1,5-a]pyridin-2-amine]
9.2 | 150 | CCC(c1ccc(C(F)(F)F)cc1)n1cc(-c2cc(-c3cnn(C)c3)c3nc(N)nn3c2)cn1 (racemic) [II-99, 8-(1-Methyl-1H-pyrazol-4-yl)-6-(1-{1-[4-(trifluoromethyl)phenyl]propyl}-1H-pyrazol-4-yl)[1,2,4]triazolo[1,5-a]pyridin-2-amine]
